Experimental data as given in paper PMC10443802, “Targeting a xenobiotic transporter to ameliorate vincristine-induced sensory neuropathy” (JCI Insight, 2023).
Values joined by “and” are separate entries in the source; they are usually repeats but may differ in a detail not shown here. Equal values may be shown once. One block for each compound: values may come before it.

Key:
hOATP1B3 [1] = biological target: T1, hOATP1B3 (Homo sapiens, UniProt Q9NPD5); experiment: EβG uptake in HEK293 cells overexpressing hOATP1B3; format: in vitro ADME
T1 sequence (Q9NPD5 1-702): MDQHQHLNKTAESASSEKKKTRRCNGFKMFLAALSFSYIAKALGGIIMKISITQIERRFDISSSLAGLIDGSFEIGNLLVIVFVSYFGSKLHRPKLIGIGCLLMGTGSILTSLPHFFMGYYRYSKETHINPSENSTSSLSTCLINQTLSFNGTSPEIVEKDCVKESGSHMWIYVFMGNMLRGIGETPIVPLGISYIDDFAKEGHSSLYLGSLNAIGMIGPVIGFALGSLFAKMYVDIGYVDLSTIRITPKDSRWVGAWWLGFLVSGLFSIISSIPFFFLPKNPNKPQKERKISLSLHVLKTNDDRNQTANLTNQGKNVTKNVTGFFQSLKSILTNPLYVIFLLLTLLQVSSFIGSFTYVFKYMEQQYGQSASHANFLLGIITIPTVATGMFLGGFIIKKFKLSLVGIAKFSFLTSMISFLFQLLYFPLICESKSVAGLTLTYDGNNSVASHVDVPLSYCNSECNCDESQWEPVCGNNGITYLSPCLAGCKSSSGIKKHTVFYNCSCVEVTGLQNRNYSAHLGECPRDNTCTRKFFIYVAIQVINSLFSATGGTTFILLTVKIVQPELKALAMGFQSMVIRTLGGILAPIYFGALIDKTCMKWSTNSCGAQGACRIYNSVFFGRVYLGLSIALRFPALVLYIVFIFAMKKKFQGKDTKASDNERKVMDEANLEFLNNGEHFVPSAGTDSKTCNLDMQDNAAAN

mOATP1B2 = biological target: T2, mOATP1B2 (Mus musculus, UniProt Q9JJL3); experiment: EβG uptake in HEK293 cells overexpressing mOATP1B2; format: in vitro ADME
T2 sequence (Q9JJL3 1-689): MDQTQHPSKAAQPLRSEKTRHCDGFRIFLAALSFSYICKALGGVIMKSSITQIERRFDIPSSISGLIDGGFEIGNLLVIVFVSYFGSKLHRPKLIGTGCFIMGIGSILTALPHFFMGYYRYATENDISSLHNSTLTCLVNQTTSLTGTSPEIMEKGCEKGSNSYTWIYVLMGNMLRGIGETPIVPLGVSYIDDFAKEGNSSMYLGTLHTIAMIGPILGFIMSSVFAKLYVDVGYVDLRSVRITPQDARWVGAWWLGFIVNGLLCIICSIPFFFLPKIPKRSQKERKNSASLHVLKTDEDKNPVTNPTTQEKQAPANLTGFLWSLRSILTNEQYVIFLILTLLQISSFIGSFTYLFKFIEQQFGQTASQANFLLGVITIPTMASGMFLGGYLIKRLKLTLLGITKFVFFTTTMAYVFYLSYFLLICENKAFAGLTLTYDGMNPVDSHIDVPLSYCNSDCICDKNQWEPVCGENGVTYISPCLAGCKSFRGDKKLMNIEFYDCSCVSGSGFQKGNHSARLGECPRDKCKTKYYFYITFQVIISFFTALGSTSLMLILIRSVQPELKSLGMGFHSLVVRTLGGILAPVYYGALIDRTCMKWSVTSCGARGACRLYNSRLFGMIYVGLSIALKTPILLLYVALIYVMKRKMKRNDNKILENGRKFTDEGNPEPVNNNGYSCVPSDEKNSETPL
Protocol: DRG, sciatic and caudal nerves were prepared, stained with toluidine blue, and examined with a Zeiss Axioskop WideField Light Microscope, as described previously (10). Representative images were captured with a QIClick Digital CCD color camera. For DRG morphometrics, the somatic size was measured for each cell containing nucleolus, and at least 200 DRG neurons per animal were manually measured and analyzed with a computer-assisted image analyzer (ImageJ software, Bethesda, MD). For sciatic nerve, all myelinated fibers evaluable in the analyzed space were counted and the internal (axonal) and external (total) diameters of myelinated fibers were measured on at least 500 myelinated fibers/nerve. The histograms of g-ratio (axonal diameter/whole fiber diameter as a measure of myelination degree in each fiber) distribution were generated. An observer blinded to the group compositions performed all the morphometric determinations.
Cellular accumulation. Human embryonic kidney (HEK293) cells (ATCC) overexpressing OATP1B1, […]
After incubation, transport was halted by aspirating radiolabeled drug, and rinsing the cells three times with ice-cold 1X PBS. Total radioactivity originating from the substrates was measured by lysing the cells with 1N NaOH, neutralized with 2N HCL, and measuring total radioactivity by liquid scintillation counting using an LS 6500 Counter (Beckman). […]

hOATP1B1 [2] = biological target: T3, hOATP1B1 (Homo sapiens, UniProt Q9Y6L6); experiment: EβG uptake in HEK293 cells overexpressing hOATP1B1; format: in vitro ADME
T3 sequence (Q9Y6L6 1-691): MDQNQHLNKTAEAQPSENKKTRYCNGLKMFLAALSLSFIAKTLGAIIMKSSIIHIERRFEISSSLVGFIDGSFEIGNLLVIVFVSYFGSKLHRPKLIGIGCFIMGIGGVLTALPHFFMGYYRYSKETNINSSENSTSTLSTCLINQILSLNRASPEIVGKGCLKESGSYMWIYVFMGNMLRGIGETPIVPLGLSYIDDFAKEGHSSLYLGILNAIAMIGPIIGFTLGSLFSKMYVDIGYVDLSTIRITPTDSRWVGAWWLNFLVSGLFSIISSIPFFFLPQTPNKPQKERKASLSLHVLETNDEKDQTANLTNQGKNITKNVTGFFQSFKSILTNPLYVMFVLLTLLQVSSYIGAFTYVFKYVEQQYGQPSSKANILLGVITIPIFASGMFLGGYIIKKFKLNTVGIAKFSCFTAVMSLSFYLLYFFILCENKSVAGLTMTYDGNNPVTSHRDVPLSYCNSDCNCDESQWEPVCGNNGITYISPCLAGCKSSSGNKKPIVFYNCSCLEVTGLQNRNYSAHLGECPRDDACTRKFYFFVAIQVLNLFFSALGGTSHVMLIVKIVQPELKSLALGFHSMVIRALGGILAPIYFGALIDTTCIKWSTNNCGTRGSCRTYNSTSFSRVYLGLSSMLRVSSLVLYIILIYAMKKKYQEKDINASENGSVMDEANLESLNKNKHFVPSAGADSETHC

hOATP1B3 [3] = biological target: T1, hOATP1B3; experiment: Inhibition of EβG uptake in HEK293 cells overexpressing hOATP1B3
OATP1B2 [4] = experiment: Plasma level and DRG/plasma ratio of α-tocopherol in mice (biomarker of OATP1B2 function); format: in vivo, mouse
hOATP1B3 [5] = biological target: T1, hOATP1B3; experiment: α-tocopherol uptake in HEK293 cells overexpressing hOATP1B3; format: in vitro ADME
[6] = cited from earlier work
hOATP1B1 [7] = biological target: T3, hOATP1B1; experiment: α-tocopherol uptake in HEK293 cells overexpressing hOATP1B1; format: in vitro ADME
OATP1B2 [8] = experiment: Untargeted metabolomics of plasma and DRG, WT vs OATP1B2-deficient mice; format: in vivo, mouse
Text: (A) Schematic overview of the untargeted metabolomics screen to discover an endogenous biomarker of OATP1B2. […] Positive fold change indicates higher plasma concentration in OATP1B2^–/– mice (n = 6 per group). […] (C) Volcano plot of differentially endogenous metabolites in untreated whole DRG samples of WT mice or OATP1B2^–/– mice. Negative fold change indicates lower DRG levels in OATP1B2^–/– mice (n = 6 per group). (D) Plasma levels and DRG/plasma ratios of α-tocopherol in WT mice or OATP1B2^–/– mice in secondary validation studies. […] Data are normalized to baseline levels observed in WT mice (n = 3 per group).

SMILES: C[C@]12CC[C@@H]3c4ccc(O)cc4CC[C@H]3[C@@H]1CC[C@@H]2O[C@@H]1O[C@H](C(=O)O)[C@@H](O)[C@H](O)[C@H]1O [EβG, estradiol-17β-ᴅ-glucuronide]
- EβG uptake (% of vector) (hOATP1B3 [1]): 5469.07 % of vector and 5408.81 % of vector and 5929.51 % of vector
- EβG uptake (% of vector) (mOATP1B2): 2727.12 % of vector and 2435.39 % of vector and 2079.28 % of vector
- EβG uptake (% of vector) (hOATP1B1 [2]): 1260.82 % of vector and 1125.55 % of vector and 1194.22 % of vector

- Level of α-tocopherol (% of wild-type baseline), DRG/Plasma Ratio (OATP1B2 [4]; KO mice): 39.9993% and 37.2252% and 46.6384%
- Level of α-tocopherol (% of wild-type baseline), Plasma (OATP1B2 [4]; KO mice): 178.006% and 210.63% and 138.224%
- Level of α-tocopherol (% of wild-type baseline), DRG/Plasma Ratio (OATP1B2 [4]; WT mice): 92.6568% and 110.888% and 96.4551%
- Level of α-tocopherol (% of wild-type baseline), Plasma (OATP1B2 [4]; WT mice): 108.759% and 91.8035% and 99.4376%
- Substrate status (hOATP1B3 [5]; OATP1B3): transported substrate of OATP1B3
- α-tocopherol uptake (% of vehicle) (hOATP1B1 [7]; VC cells, control for hOATP1B1): 88.8965% and 111.905% and 99.1984%
- α-tocopherol uptake (% of vehicle) (hOATP1B1 [7]; cells overexpressing hOATP1B1): 109.574% and 76.2241% and 88.2425%
- Fold of Change KO/WT (OATP1B2 [8]; DRG samples, untreated OATP1B2-deficient (KO) vs wild-type mice): 0.730
- Fold of Change KO/WT (OATP1B2 [8]; untreated plasma, OATP1B2-deficient (KO) vs wild-type mice): 2.03
SMILES: Cc1c(C)c2c(c(C)c1O)CC[C@@](C)(CCC[C@H](C)CCC[C@H](C)CCCC(C)C)O2 [α-tocopherol]
- Inhibition of transporter-mediated uptake of EβG (hOATP1B3 [3]): can mediate inhibition of transporter-mediated uptake
- Level of α-tocopherol (% of wild-type) (OATP1B2 [4]; DRG, OATP1B2(-/-) mice): 28.1345 % of wild-type and 39.8965 % of wild-type and 39.7351 % of wild-type and 42.7289 % of wild-type and 36.0477 % of wild-type and 32.6784 % of wild-type
- Level of α-tocopherol (% of wild-type) (OATP1B2 [4]; DRG, Wild-type mice): 86.7441 % of wild-type and 109.645 % of wild-type and 120.39 % of wild-type and 114.671 % of wild-type and 77.0519 % of wild-type and 91.498 % of wild-type
- Level of α-tocopherol (% of wild-type baseline), relative DRG/plasma ratio (OATP1B2 [4]; KO (OATP1B2-/-) mice): 39.9993 % of wild-type baseline and 37.2252 % of wild-type baseline and 46.6384 % of wild-type baseline
- Level of α-tocopherol (% of wild-type) (OATP1B2 [4]; Plasma, OATP1B2(-/-) mice): 240.656 % of wild-type and 154.285 % of wild-type and 188.158 % of wild-type and 206.445 % of wild-type and 170.946 % of wild-type and 257.161 % of wild-type
- Level of α-tocopherol (% of wild-type) (OATP1B2 [4]; Plasma, Wild-type mice): 128.573 % of wild-type and 75.6647 % of wild-type and 109.778 % of wild-type and 78.7903 % of wild-type and 110.315 % of wild-type and 96.8791 % of wild-type
- Level of α-tocopherol (% of wild-type baseline), relative DRG/plasma ratio (OATP1B2 [4]; WT mice, baseline): 92.6568 % of wild-type baseline and 110.888 % of wild-type baseline and 96.4551 % of wild-type baseline
- α-tocopherol uptake (% of vehicle) (hOATP1B3 [5]; VC cells, control for hOATP1B3): 86.9835% and 91.7117% and 121.305% and 85.9356% and 106.189% and 107.875%
- α-tocopherol uptake (% of vehicle) (hOATP1B3 [5]; cells overexpressing hOATP1B3): 213.78% and 147.762% and 148.702% and 127.524% and 133.603% and 184.662%
- Share recovered in the liver [6]: up to 90%
